Results: US7989494B2, “Polymorphs of N-hydroxy-3-[4-[[[2-(2-methyl-1H-indol-3-yl)ethyl]amino]methyl]phenyl]-2E-2-propenamide” (Novartis AG, priority 2006, dated 2011)
Structures can show the parent of a compound that is named as a salt.

What was measured:
Type in all cases: physicochemical
Aqueous solubility = conditions: water
[1] = Solubility in organic solvents
Intrinsic dissolution = experiment: Intrinsic dissolution
[2] = Hygroscopicity (descriptive)
[3] = Sorption-desorption isotherms, VTI humidity balance; conditions: for Sorption: 25° C., first sorption cycle; for Desorption: in % (unit assumed)
Experimental: Sorption-desorption isotherms were recorded by a VTI humidity balance. The salts of (N-hydroxy-3-[4-[[[2-(2-methyl-1H-indol-3-yl)ethyl]amino]methyl]phenyl]-2E-2-propenamide were first subjected to a drying step (25° C., r.h. below 2%, 2 hours) and then to a sorption-desorption-sorption sequence, with each RH % step retained for 3 hours. The free base was kept below 2% r.h. for several hours, and thus was completely dehydrated after the drying step. Only the data of the first sorption cycle are given in the table, since, in all cases, the two sorption cycles were very similar.

[4] = Equilibration in solvents and aqueous media, solid form by XRPD

aqueous solubility (Aqueous solubility) | solubility in methanol and ethanol [1] | solubility in other common / remaining organic solvents [1] | intrinsic dissolution (Intrinsic dissolution) | hygroscopicity [2] | Sorption ([3]; Sample RH % 1.5) | Sorption ([3]; Sample RH % 5) | Desorption ([3]; Sample RH % 5) | Sorption ([3]; Sample RH % 25) | Desorption ([3]; Sample RH % 25) | Sorption ([3]; Sample RH % 50) | Desorption ([3]; Sample RH % 50) | Sorption ([3]; Sample RH % 75) | Desorption ([3]; Sample RH % 75) | Sorption ([3]; Sample RH % 85) | Desorption ([3]; Sample RH % 85) | Sorption ([3]; Sample RH % 95) | Desorption ([3]; Sample RH % 95) | XRPD form after equilibration ([4]; 2-Propanol) | XRPD form after equilibration ([4]; Acetone) | SMILES | further results
12900 µg/mL | high solubility | appreciable solubility | high | very slightly hygroscopic | 0% | 0.03% | −0.03 | 0.1% | 0.07 | 0.16% | 0.16 | 0.23% | 0.25 | 0.31% | 0.33 | 0.82% | 0.82 | No change | No change | Cc1[nH]c2ccccc2c1CCNCc1ccc(/C=C/C(=O)NO)cc1 [Form A of the mesylate salt, N-hydroxy-3-[4-[[[2-(2-methyl-1H-indol-3-yl)ethyl]amino]methyl]phenyl]-2E-2-propenamide] | moisture at 85% r.h. ([3]; 85% r.h.): less than 0.35%; XRPD form after equilibration ([4]; 0.1 N HCl): hydrochloride salt; XRPD form after equilibration ([4]; Ethanol): No change; XRPD form after equilibration ([4]; Ethyl Acetate): No change; XRPD form after equilibration ([4]; Water, listed as Mesylate): Changed to new; XRPD form after equilibration ([4]; pH = 6.8 buffer (phosphate)): free base; XRPD form after equilibration ([4]; water): converts to form B
2600 µg/mL | high solubility | considerable solubility | good | nonhygroscopic | 0% | 0.02% | −0.02 | 0.07% | 0.05 | 0.12% | 0.10 | 0.16% | 0.17 | 0.17% | 0.19 | 0.21% | 0.21 | No change | No change | Cc1[nH]c2ccccc2c1CCNCc1ccc(/C=C/C(=O)NO)cc1 [Form A of the maleate salt, N-hydroxy-3-[4-[[[2-(2-methyl-1H-indol-3-yl)ethyl]amino]methyl]phenyl]-2E-2-propenamide] | XRPD form after equilibration ([4]; Ethanol): No change; XRPD form after equilibration ([4]; Ethyl Acetate): No change; XRPD form after equilibration ([4]; Methanol): No change; XRPD form after equilibration ([4]; pH = 6.8 buffer (phosphate)): No change; XRPD form after equilibration ([4]; water): No change
